# Experimental data taken from US12590950B2, “Methods for predicting ER-mediated DNA damage” (UNIVERSITY OF MASSACHUSETTS, priority 2019, dated 2026).
# “Also recorded” adds a separate entry of the source.
# How the values were obtained:
# T47D cells [1] = experiment: γH2AX immunostaining (DNA damage) in T47D cells; format: cell-based, human; conditions: T47D, 24 h; E2 10 or 100 nM, BP3 1 or 5 μM, PP 1 or 5 μM; vs control
# Procedure: (§1) Immunostaining: Cells were grown in clearing media for 48 h and plated on 20 mm coverslip in 12 well plates with a density of 2×10^5 cells/well. […] Cells were washed with 1×PBS, blocked in 2% BSA/PBS with 0.1% Triton-X 100 for 1 hr at room temperature (RT), incubated overnight with γH2AX antibody (Cell Signaling #9718 S) or ERα antibody (Santa Cruz Biotechnology #sc-8002) at 4° C. and 1 hour with secondary antibody. S9.6: Cells were fixed in ice-cold 100% methanol for 10 min at −20° C., permeabilized in 100% acetone for 1 min at RT, blocked for 30 min in saline sodium citrate pH 7 (SSC, 4×), 3% BSA, 0.1% Triton-X and incubated with S9.6 (Kerafast #ENH001) 2 hr at RT followed by 1 h with secondary antibody. If indicated, slides were treated with RNase H (NEB #M0297L) for 4 hr at 37° C. prior to incubation with primary antibody. Stained cells were mounted with Vectashield mounting medium containing DAPI (Vector Laboratories #H-1200). Slides were imaged at 60× (immersion oil) with Nikon A1 Spectral Confocal microscope. Analysis of γH2AX and S9.6 intensity per nucleus or foci per nucleus was calculated using Nikon analysis software, where DAPI was used as a mask for the nucleus.
# MCF-7 cells = experiment: γH2AX immunostaining (DNA damage) in MCF-7 cells; format: cell-based, human; conditions: E2 10-100 nM, BP3 1-30 μM, PP 1-30 μM
# Procedure: as §1
# TFF1 = experiment: RT-qPCR of estrogen-responsive gene TFF1 in T47D cells; format: cell-based, human; conditions: T47D; for expression of TFF1 vs control: 5 μM
# Procedure: (§2) RT-qPCR: RNA from T47D cells, MCF-7 Cells or flash-frozen 4th mammary gland was isolated with TRIzol (Thermofisher Scientific #15596018) and Direct-zol RNA MiniPrep Plus (Zymo Research #R2072). cDNA was prepared with Protoscript II First Strand cDNA Synthesis Kit (New England Biolabs #E6560S) and qPCR for TFF1, progesterone receptor (PGR) and Amphiregulin (AREG) was performed on CFX96 Real-Time System thermocycler (Bio-Rad) using primers in Table 1.
# T47D cells [2] = experiment: Cell proliferation assay (alamar blue) in T47D cells; format: cell-based, human
# Procedure: Cell Proliferation Assay: T47D cells grown in clearing media for 72 h was plated as 100 μl of cells suspension having 5000 or 10000 cells per well on five 96 well plates (one for each day). The 96 well plate had 12 cell-free wells for a blank and 7 wells per treatment on each plate. After 24 h, 100 μl of E2, BP3 or PP containing media was added to appropriate wells on each plate to reach the desired final concentration in each well. All plates were maintained in a 37° C., 5% CO2 incubator until media was exchanged, on one plate per day, for 10% Alamar Blue in plating media. Plates were read at the same time each day at 4 hr and 8 hr after media exchange on a BioTek Synergy 2 plate reader (Winooski, VT) at 570 nm and 600 nm. Percent alamar blue reduction was calculated as per the following equation on the AlamarBlue protocol: […]
# mammary gland = experiment: Acute oral exposure of ovariectomized mice: nuclear γH2AX in mammary gland; format: in vivo, mouse; conditions: 4 days, E2 250, BP3 3,000, PP 10,000 μg/kg/day
# Excerpt: (§3) Animal Treatment: Forty mature female mice (8 weeks old) BALB/c mice were purchased from Jackson Laboratory and housed in temperature-controlled facilities with a 12-hour alternating day/night light cycle and fed LabChow 5058 ad libitum. All procedures were in accordance with the national guidelines for the care and use of animals and approved by the University of Massachusetts Amherst's Institutional Animal Care and Use Committee.
# (§4) The mice were ovariectomized before treatment. Briefly, each mouse was anaesthetized with a mix of isofluorance and oxygen. The flanks were shaved, sterilized with betadine and cleaned with alcohol. An incision was made to the skin on the right flank. The underlying muscle layer was nicked to reveal a small hole through which ovary was pulled out by grasping the periovarian fat. A Serrifin clamp was used to hold the ovary. After making sure the blood vessels were constricted to prevent […], the ovary was cut from the uterine horn. The periovarian fat was restored into the peritoneum. The peritoneum was closed with one or two stiches and the skin was closed with 9 mm wound clips. The procedure was repeated on the contralateral side. The mouse was monitored for a week post-procedure and wound clips were removed after 10 days. After 1 week of recovery, the mice began an acute oral treatment via pipette with one of three different compounds prepared in tocopherol-stripped corn oil for 4 days. Each mouse was administered 1 μL of oil per gram of body weight to deliver 250 μg/kg/d E2, 3000 μg/kg/d BP3 or 10000 μg/kg/d PP or vehicle control. […]
# (§5) Immunostaining of mouse mammary gland: Freshly cut […] paraffin-embedded sections were deparaffinized/rehydrated with 100% xylenes 3 times for 5 min each, 2 times with 100% ethanol for 5 min each, 95% ethanol for 3 min and 70% ethanol for 3 min. […] Analysis of S9.6 intensity per nucleus or foci per nucleus were calculated using Nikon analysis software, where DAPI was used as a mask for the nucleus. […] Positive cells were counted using ImageJ software. 1200 cells were counted to determine percent Ki67 positive.
# Areg and Pgr = experiment: Acute oral exposure of ovariectomized mice: Areg and Pgr expression in mammary gland; format: in vivo, mouse; conditions: 4 days, E2 250, BP3 3,000, PP 10,000 μg/kg/day
# Procedure: as §2, §3, §4
# mammary epithelium = experiment: Acute oral exposure of ovariectomized mice: Ki67 proliferation of luminal epithelial cells; format: in vivo, mouse; conditions: 4 days, E2 250, BP3 3,000, PP 10,000 μg/kg/day
# Excerpt: as §3, §4, §5
SMILES,nuclear γH2AX intensity (T47D cells [1]),nuclear γH2AX intensity (MCF-7 cells),expression of TFF1 vs control (TFF1),Slope of growth curve (T47D cells [2]; 5 μM),Slope of growth curve (T47D cells [2]; 50 μM),proliferation (T47D cells [2]; 5 or 50 μM),nuclear γH2AX intensity in the mammary gland vs vehicle control (mammary gland),transcriptional activation of ER-target genes (Areg and Pgr) (Areg and Pgr),proliferation (Ki67) of mammary luminal epithelial cells (mammary epithelium),increase in expression of TFF1 (TFF1; 10 nM) [fold],Slope of growth curve (T47D cells [2]; 0.5 nM),Slope of growth curve (T47D cells [2]; 1 μM),Slope of growth curve (T47D cells [2]; 10 μM),proliferation (T47D cells [2]; 10 μM)
"COc1ccc(C(=O)c2ccccc2)c(O)c1 [BP3, 2-Hydroxy-4-methoxybenzophenone]",increased γH2AX intensity,dose-dependent increase in nuclear γH2AX intensity,did not differ from the control,0.0202,0.01581,marginal effect,significantly higher; also recorded: increases,neither BP3 nor PP elicited significant responses,neither BP3 nor PP elicited significant responses,,,,,
"C[C@]12CC[C@@H]3c4ccc(O)cc4CC[C@H]3[C@@H]1CC[C@@H]2O [E2, 17β-estradiol, reference compound]",dose-dependent increase,dose-dependent increase in nuclear γH2AX intensity,,,,,significantly higher,stimulated,stimulated,13.1,0.08495,,,
"CCCOC(=O)c1ccc(O)cc1 [PP, propyl parahydroxybenzoate]",significantly higher γH2AX intensity,dose-dependent increase in nuclear γH2AX intensity,did not differ from the control,,,,increases,neither BP3 nor PP elicited significant responses,neither BP3 nor PP elicited significant responses,,,0.01856,0.06387,stimulates significant proliferation
